Tests used:
[1] = Human pharmacokinetics of Formulation 3 with and without 20 mg famotidine; format: in vivo; conditions: conventional formulation of Compound II
Protocol: The oral absorption obtained from Formulation 3 with and without pH-modifying medications (20 mg famotidine) was evaluated as part of human clinical study. For the treatment with famotidine, single oral doses of 20 mg famotidine (1×20 mg tablet) were administered on the previous evening and 2 hours prior to a single oral dose of Formulation 3.

[2] = Aqueous / pH-dependent solubility; format: physicochemical; conditions: between pH 1-3
[3] = Human pharmacokinetics of Formulation 4 with and without famotidine, co-dosed with Formulation 1; format: in vivo; conditions: Compound II from Formulation 4 co-dosed with Formulation 1; healthy subjects
Protocol: For the treatment with famotidine, single oral doses of 20 mg famotidine (1×20 mg tablet) was administered 10 hours and 2 hours prior to an oral dose of Formulation 1 and Formulation 4.

## COC(=O)N[C@H](C(=O)N1CCC[C@H]1c1nc(-c2ccc3c(c2)O[C@@H](c2ccccc2)n2c-3cc3cc(-c4c[nH]c([C@@H]5CCCN5C(=O)[C@@H](NC(=O)OC)C(C)C)n4)ccc32)c[nH]1)C(C)C [Compound II, dimethyl N,N′-([(6S)-6-phenylindolo[1,2-c][1,3]benzoxazine-3,10-diyl]bis{1H-imidazole-5,2-diyl-(2S)-pyrrolidine-2,1-diyl[(2S)-3-methyl-1-oxobutane-1,2-diyl]})dicarbamate]
[1]
  absorption upon co-administration with a pH-raising medication: poor absorption
[2]
  pH-dependent solubility profile: sharp pH-dependent solubility profile
[3]
  exposure following famotidine versus without famotidine: comparable
